Data reported in patent US20220218664A1, “DRUG AND METHOD FOR TREATING OR PREVENTING COMPLICATIONS FROM DIABETES, USING SAID DRUG” (TMS Co., Ltd., priority 2019, published 2022).

What was measured:
Assay type in all cases: in vivo, C57BL/6J male mice
[1] = test system: streptozotocin-induced diabetic mice; assay: Blood glucose level (BS) in streptozotocin-induced diabetic mice; settings: 10 mg/kg i.p. once a day
Experimental: (§1) 9-week-old C57BL/6J male mice were purchased and familiarized with an animal facility for 1 week. 200 mg/kg of streptozotocin (streptozotocin; STZ) was administered […] into the peritoneal cavity of 10-week-old mice to prepare streptozotocin-induced diabetic mice (hereinafter also referred to as “STZ administration week 0”). One week after the administration of streptozotocin, blood was collected from the tail vein of the mice, and the blood glucose level (BS) was measured using an automatic blood glucose measuring device (product name: Medisafe (trademark) Mini GR-102, made by Terumo (Co)). Mice having a blood glucose level of 400 mg/dL or more were determined to be diabetic mice.
(§2) The SMTP-44D groups, the edaravone group, and the pregabalin group were administered SMTP-44D (0.3 mg/kg, 3 mg/kg, or 30 mg/kg doses, respectively), edaravone (10 mg/kg dose), or pregabalin (10 mg/kg dose) into the peritoneal cavity once a day for 3 consecutive weeks from the day following the first week to the fourth week after STZ administration.
For the above-mentioned STZ group, SMTP-44D groups, edaravone group, pregabalin group, and control group mice, the following measurements were conducted every week from the 0th week, which began on the day when streptozotocin (STZ) was administered, to the 4th week (that is, a total of five times). As algesia tests, the following von Frey test and hot plate test were conducted, and hind plantar blood flow, body weight (BW), and blood glucose level (BS) were measured using the above-mentioned automatic blood glucose measure device. Note, for example, the 0th week represents the 0th day. That is, the measurements were conducted on the 0th, 7th, 14th, 21st, and 28th days.

[2] = test system: streptozotocin-induced diabetic mice; assay: Von Frey test: evaluating mechanical stimulus; settings: 10 mg/kg i.p. once a day
Experimental: as §1, §2
The above-mentioned STZ group, SMTP-44D groups, edaravone group, pregabalin group, and control group mice were put in grid-like boxes, respectively, and were familiarized for one hour. After the familiarization, by using a Dynamic Plantar Aesthesiometer (tactometer) (manufactured by UGO BASILE Inc.), 1 g/s (that, pressurization increased by 1 g per second) of stimulation was imparted to the hind legs of these mice to measure mechanical thresholds (g) from the start of stimulation to the time when the mice withdrew their legs. The measurements were conducted for both hind legs three times at intervals of three minutes or longer, respectively. A mean value of three mechanical thresholds (g) was calculated for 1 mouse, and then a mean value of the 12 mice for the respective groups was found.

[3] = test system: streptozotocin-induced diabetic mice; assay: Hind plantar blood flow (laser perfusion imager); settings: 10 mg/kg i.p. once a day
Experimental: as §1, §2
The hind plantar blood flows (perfusion unit: PU) of the above-mentioned STZ group, SMTP-44D groups, edaravone group, pregabalin group, and control group mice were measured under isoflurane anesthesia using a full-field laser perfusion imager.

[4] = test system: streptozotocin-induced diabetic mice; assay: Thickness and G-ratio of myelin in the sciatic nerve; settings: 10 mg/kg i.p. once a day, 4th week
Experimental: as §1, §2
The above-mentioned STZ group, SMTP-44D (30 mg/kg) group, edaravone group, pregabalin group, and control group mice in the 4th week were dissected to remove the sciatic nerves. The sciatic nerves were fixed using neutral buffered formalin and embedded using an Epon resin, and then semi-thin segments were formed and dyed using toluidine blue. The cross sections of the sciatic nerves in the respective specimens were examined using a microscope equipped with a digital camera at 400× magnification. The thickness of myelin ((diameter of axon including myelin diameter of axon)/2) and G-ratio (diameter of axon/diameter of axon including myelin) were measured.

[5] = test system: malondialdehyde: MDA; assay: Oxidative stress (MDA, TBARS assay) in sciatic nerve; settings: 10 mg/kg i.p. once a day, 4th week
Experimental: as §1, §2
The sciatic nerves of the above-mentioned STZ group, SMTP-44D group (30 mg/kg), edaravone group, pregabalin group, and control group mice in the 4th week were homogenized using an RIPA buffer containing a protease inhibitor cocktail. Moreover, centrifugation was conducted at 4° C. for 15 minutes at 1600 g, and the supernatant was collected and used for measuring MDA (μM) and total protein concentration (μg/mL), respectively. MDA was measured using a TBARS Assay Kit. The total protein concentration was measured using a Pierce (Trademark) BCA Protein Assay Kit. Oxidative stress levels (nmol/mg protein) were calculated from MDA (μM) and the total protein concentration (μg/mL).

[6] = test system: TNF-α; assay: Inflammatory cytokine TNF-α in sciatic nerve (ELISA); settings: 10 mg/kg i.p. once a day, 4th week
Experimental: as §1, §2
(§3) The sciatic nerves of the above-mentioned STZ group, SMTP-44D group (30 mg/kg), edaravone group, pregabalin group, and control group mice on the 4th week were homogenized using the RIPA buffer containing a protease inhibitor cocktail. Moreover, centrifugation was conducted at 4° C. for 15 minutes at 10,000 g, and the supernatant was collected and used for measuring TNF-α concentration (pg/mL), IL-1β concentration (pg/mL), IL-6 concentration (pg/mL), and total protein concentration (μg/mL), respectively. An ELISA assay kit was used for the TNF-α, IL-1β, and IL-6 concentrations. The total protein concentration was measured by using a Pierce (trademark) BCA Protein Assay Kit. The inflammatory cytokine level (pg/mg protein) in the total protein was calculated from the TNF-α concentration (pg/mL), IL-1β concentration (pg/mL), and IL-6 concentration (pg/mL), and total protein concentration (μg/mL).

[7] = test system: IL-1β; assay: Inflammatory cytokine IL-1β in sciatic nerve (ELISA); settings: 10 mg/kg i.p. once a day, 4th week
Experimental: as §1, §2, §3

[8] = test system: IL-6; assay: Inflammatory cytokine IL-6 in sciatic nerve (ELISA); settings: 10 mg/kg i.p. once a day, 4th week
Experimental: as §1, §2, §3

[9] = 0th week (before dosing), listed as edaravone
[10] = 1st week (before dosing), listed as edaravone
[11] = 0th week (before dosing), listed as pregabalin
[12] = 1st week (before dosing), listed as pregabalin

CC1=NN(c2ccccc2)C(=O)C1 [Edaravone, edaravone]
BS (blood glucose level) [1, 9]: 221.0 ± 7.3 mg/dL | BS (blood glucose level) ([1]; 1st week (before dosing)): 566.0 ± 32.6 mg/dL | BS (blood glucose level) [1, 10]: 566.0 ± 32.6 mg/dL | BS (blood glucose level) ([1]; 2nd week): 567.5 ± 28.0 mg/dL | BS (blood glucose level) ([1]; 2nd week, listed as edaravone): 567.5 ± 28.0 mg/dL | BS (blood glucose level) ([1]; 3rd week): 617.7 ± 373.3 mg/dL | BS (blood glucose level) ([1]; 3rd week, listed as edaravone): 617.7 ± 37.3 mg/dL | BS (blood glucose level) ([1]; 4th week): 565.3 ± 35.1 mg/dL | BS (blood glucose level) ([1]; 4th week, listed as edaravone): 565.3 ± 35.1 mg/dL | von Frey test mechanical threshold ([2]; 0th week (before dosing)): 5.1 ± 0.1 g | von Frey test mechanical threshold [2, 9]: 5.1 ± 0.1 g | von Frey test mechanical threshold ([2]; 1st week (before dosing)): 4.1 ± 0.1 g | von Frey test mechanical threshold [2, 10]: 4.1 ± 0.1 g | von Frey test mechanical threshold ([2]; 2nd week): 4.6 ± 0.2 g | von Frey test mechanical threshold ([2]; 2nd week, listed as edaravone): 4.6 ± 0.2 g | von Frey test mechanical threshold ([2]; 3rd week): 4.8 ± 0.1 g | von Frey test mechanical threshold ([2]; 3rd week, listed as edaravone): 4.8 ± 0.1 g | von Frey test mechanical threshold ([2]; 4th week): 5.1 ± 0.2 g | von Frey test mechanical threshold ([2]; 4th week, listed as edaravone): 5.1 ± 0.2 g | Hind plantar blood flow ([3]; 0th week (before dosing)): 227.2 ± 12.5 PU | Hind plantar blood flow [3, 9]: 227.2±12.5 PU | Hind plantar blood flow ([3]; 1st week (before dosing)): 149.7 ± 11.5 PU | Hind plantar blood flow [3, 10]: 149.7±11.5 PU | Hind plantar blood flow ([3]; 2nd week, listed as edaravone): 161.4±9.1 PU | Hind plantar blood flow ([3]; 3rd week): 166.6 ± 7.5 PU | Hind plantar blood flow ([3]; 3rd week, listed as edaravone): 166.6±7.5 PU | Hind plantar blood flow ([3]; 4th week): 178.2 ± 9.9 PU | Hind plantar blood flow ([3]; 4th week, listed as edaravone): 178.2±9.9 PU | G-ratio [4]: 0.619 ± 0.005 | Thickness of myelin [4]: 1.42 ± 0.02 μm | G-ratio ([4]; listed as edaravone): 0.619±0.005 | Thickness of myelin ([4]; listed as edaravone): 1.42±0.02 μm | MDA (oxidative stress) [5]: 2.98 ± 0.39 nmol/mg protein | MDA (oxidative stress) ([5]; listed as edaravone): 2.98±0.39 nmol/mg protein | TNF-α [6]: 12.45 ± 2.06 pg/mg protein | TNF-α ([6]; listed as edaravone): 12.45±2.06 pg/mg protein | IL-1β [7]: 24.54 ± 4.52 pg/mg protein | IL-1β ([7]; listed as edaravone): 24.54±4.52 pg/mg protein | IL-6 [8]: 165.83 ± 10.21 pg/mg protein | IL-6 ([8]; listed as edaravone): 165.83±10.21 pg/mg protein

CC(C)C[C@H](CN)CC(=O)O [Pregabalin, pregabalin]
BS (blood glucose level) ([1]; 0th week (before dosing)): 192.2 ± 5.3 mg/dL | BS (blood glucose level) [1, 11]: 192.2 ± 5.3 mg/dL | BS (blood glucose level) ([1]; 1st week (before dosing)): 562.7 ± 25.6 mg/dL | BS (blood glucose level) [1, 12]: 562.7 ± 25.6 mg/dL | BS (blood glucose level) ([1]; 2nd week): 639.1 ± 44.7 mg/dL | BS (blood glucose level) ([1]; 2nd week, listed as pregabalin): 639.1 ± 44.7 mg/dL | BS (blood glucose level) ([1]; 3rd week, listed as pregabalin): 657.2 ± 38.7 mg/dL | BS (blood glucose level) ([1]; 4th week): 582.3 ± 38.2 mg/dL | BS (blood glucose level) ([1]; 4th week, listed as pregabalin): 582.3 ± 38.2 mg/dL | von Frey test mechanical threshold ([2]; 0th week (before dosing)): 5.0 ± 0.2 g | von Frey test mechanical threshold [2, 11]: 5.0 ± 0.2 g | von Frey test mechanical threshold ([2]; 1st week (before dosing)): 4.0 ± 0.1 g | von Frey test mechanical threshold [2, 12]: 4.0 ± 0.1 g | von Frey test mechanical threshold ([2]; 2nd week): 4.6 ± 0.2 g | von Frey test mechanical threshold ([2]; 2nd week, listed as pregabalin): 4.6 ± 0.2 g | von Frey test mechanical threshold ([2]; 3rd week): 4.6 ± 0.2 g | von Frey test mechanical threshold ([2]; 3rd week, listed as pregabalin): 4.6 ± 0.2 g | von Frey test mechanical threshold ([2]; 4th week): 4.7 ± 0.2 g | von Frey test mechanical threshold ([2]; 4th week, listed as pregabalin): 4.7 ± 0.2 g | Hind plantar blood flow ([3]; 0th week (before dosing)): 214.2 ± 7.6 PU | Hind plantar blood flow [3, 11]: 214.2±7.6 PU | Hind plantar blood flow ([3]; 1st week (before dosing)): 159.8 ± 6.3 PU | Hind plantar blood flow [3, 12]: 159.8±6.3 PU | Hind plantar blood flow ([3]; 2nd week): 144.7 ± 8.3 PU | Hind plantar blood flow ([3]; 2nd week, listed as pregabalin): 144.7±8.3 PU | Hind plantar blood flow ([3]; 3rd week): 152.7 ± 9.5 PU | Hind plantar blood flow ([3]; 3rd week, listed as pregabalin): 152.7±9.5 PU | Hind plantar blood flow ([3]; 4th week): 151.2 ± 8.0 PU | Hind plantar blood flow ([3]; 4th week, listed as pregabalin): 151.2±8.0 PU | G-ratio ([4]; listed as Preaabalin): 0.665 ± 0.006 | Thickness of myelin ([4]; listed as Preaabalin): 1.29 ± 0.03 μm | G-ratio ([4]; listed as pregabalin): 0.665±0.006 | Thickness of myelin ([4]; listed as pregabalin): 1.29±0.03 μm | MDA (oxidative stress) [5]: 4.02 ± 0.59 nmol/mg protein | MDA (oxidative stress) ([5]; listed as pregabalin): 4.02±0.59 nmol/mg protein | TNF-α [6]: 14.53 ± 1.41 pg/mg protein | TNF-α ([6]; listed as pregabalin): 14.53±1.41 pg/mg protein | IL-1β [7]: 58.04 ± 4.47 pg/mg protein | IL-1β ([7]; listed as pregabalin): 58.04±4.47 pg/mg protein | IL-6 [8]: 166.60 ± 13.57 pg/mg protein | IL-6 ([8]; listed as pregabalin): 166.60±13.57 pg/mg protein
